{"source": "patent US11712576B2", "about": "“Method and apparatus for cancer treatment” (Minnesota Medical Physics LLC, priority 2018, dated 2023)", "origin": "cited, not measured here", "key": {"[1]": {"tested_on": "melanoma, colon, prostate carcinoma, lymphoma, pancreatic and hepatocellular carcinomas"}, "adenosine receptor A2aAR": {"biological_target": "adenosine receptor A2aAR (Homo sapiens, UniProt P29274)", "sequence (P29274 whole entry)": "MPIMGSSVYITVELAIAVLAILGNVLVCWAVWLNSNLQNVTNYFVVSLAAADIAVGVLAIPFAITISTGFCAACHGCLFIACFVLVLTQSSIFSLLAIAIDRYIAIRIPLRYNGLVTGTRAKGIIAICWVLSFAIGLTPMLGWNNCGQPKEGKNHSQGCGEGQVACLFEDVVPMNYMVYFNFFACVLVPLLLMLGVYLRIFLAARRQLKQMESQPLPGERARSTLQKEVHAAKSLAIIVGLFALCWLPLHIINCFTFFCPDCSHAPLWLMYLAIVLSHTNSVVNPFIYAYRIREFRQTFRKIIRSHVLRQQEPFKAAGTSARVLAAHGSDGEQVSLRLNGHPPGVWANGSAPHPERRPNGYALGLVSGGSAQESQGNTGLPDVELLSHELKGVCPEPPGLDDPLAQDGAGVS"}, "lung cancer cells Lu-65": {"tested_on": "lung cancer cells Lu-65", "conditions": "highest concentrations in mM range (0.01-10 mM tested), 48 hours"}, "[2]": {"tested_on": "human glioblastoma U87MG cancer cells", "conditions": "agonist 100 nM combined with EFS (Helmholtz coils)"}, "tumor": {"tested_on": "tumor", "conditions": "concentration of 100 μM"}, "[3]": {"conditions": "oral doses of 4 mg twice a day over a week period"}}, "data": [{"smiles": "CNC(=O)c1cnn(-c2nc(N)c3ncn([C@@H]4O[C@H](CO)[C@@H](O)[C@H]4O)c3n2)c1", "note": "[Lexiscan]", "values": [{"measurement": "side effects", "setting": "BBB; doses used for cardiac perfusion", "result": "strong, sometimes life-threatening side effects"}, {"measurement": "permeation of the BBB", "setting": "BBB; in vivo", "result": "substantial permeation of the BBB"}]}, {"smiles": "CNC(=O)[C@H]1O[C@@H](n2cnc3c(NCc4cccc(I)c4)ncnc32)[C@H](O)[C@@H]1O", "note": "[IB-MECA]", "values": [{"measurement": "effect on metastases, migrating mobility and proliferation of cancer cells", "setting": "[1]", "result": "reduction of metastases, migrating mobility of cancer cells and inhibition of proliferation"}]}, {"smiles": "Nc1nc2c(cnn2CCc2ccccc2)c2nc(-c3ccco3)nn12", "note": "[SCH-58261]", "values": [{"measurement": "selectivity for A2aAR over the other adenosine receptors", "setting": "adenosine receptor A2aAR", "result": "more than 50 fold"}]}, {"smiles": "Nc1ncnc2c1ncn2[C@@H]1O[C@H](CO)[C@@H](O)[C@H]1O", "note": "[adenosine]", "values": [{"measurement": "cancer cells destroyed", "setting": "lung cancer cells Lu-65", "result": 100, "unit": "%"}]}, {"smiles": "CNC(=O)[C@H]1O[C@@H](n2cnc3c(NCc4cccc(I)c4)nc(Cl)nc32)[C@H](O)[C@@H]1O", "note": "[CI-IB-MECA]", "values": [{"measurement": "increase in apoptosis attributed to EFS over agonist alone", "setting": "[2]", "result": "25-30%"}, {"measurement": "effect on metastases, migrating mobility and proliferation of cancer cells", "setting": "[1]", "result": "reduction of metastases, migrating mobility of cancer cells and inhibition of proliferation"}, {"measurement": "apoptosis of cancer cells (normal cells refractory)", "setting": "cancer cells", "result": "induce apoptosis of cancer cells"}, {"measurement": "effect on tumor growth", "setting": "tumor", "result": "only a slowdown of tumor growth"}]}, {"smiles": "CNC(=O)[C@H]1O[C@@H](n2cnc3c(NCc4cccc(I)c4)ncnc32)[C@H](O)[C@@H]1O", "note": "[CF101]", "values": [{"measurement": "tolerability", "setting": "[3]", "result": "well tolerated"}, {"measurement": "apoptosis of cancer cells (normal cells refractory)", "setting": "cancer cells", "result": "induce apoptosis of cancer cells"}]}]}
